Several values for one entry are separate records, joined by “and”; a condition that tells them apart may be missing. Equal entries are not always repeated.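 The compound was tested at five concentrations on cells cultured in 96-well plates, with a 48-hour exposure period. Abbreviation: GI50, concentration required for 50% inhibition of growth. TGI marks complete inhibition of growth.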
Columns and labels:
Assay in all cases: inhibition of tumour cell growth, NCI panel, 48 h
SK-MEL-2 melanoma = tested on: SK-MEL-2 melanoma
UACC-257 melanoma = tested on: UACC-257 melanoma
786-0 renal = tested on: 786-0 renal
M14 melanoma = tested on: M14 melanoma
HL-60(TB) leukemia = tested on: HL-60(TB) leukemia
LOX IMVI melanoma = tested on: LOX IMVI melanoma
SW-620 colon = tested on: SW-620 colon
A498 renal = tested on: A498 renal
MCF7 breast = tested on: MCF7 breast
T-47D breast = tested on: T-47D breast

| Compound | TGI (SK-MEL-2 melanoma) [µM] | TGI (UACC-257 melanoma) [µM] | TGI (786-0 renal) | TGI (M14 melanoma) [µM] | TGI (HL-60(TB) leukemia) | TGI (LOX IMVI melanoma) | TGI (SW-620 colon) | TGI (A498 renal) [µM] | GI50 (786-0 renal) | GI50 (M14 melanoma) | GI50 (A498 renal) | GI50 (MCF7 breast) [µM] | TGI (MCF7 breast) [µM] | GI50 (HL-60(TB) leukemia) | GI50 (LOX IMVI melanoma) | GI50 (SW-620 colon) | GI50 (SK-MEL-2 melanoma) | GI50 (UACC-257 melanoma) | TGI (T-47D breast) [µM] | GI50 (T-47D breast) [µM] |
| --- | --- | --- | --- | --- | --- | --- | --- | --- | --- | --- | --- | --- | --- | --- | --- | --- | --- | --- | --- | --- |
| CCOC(=O)CN=c1nc(SC)sc2c(C(=O)OCC)nc(Sc3ccccc3)n12 | > 100 | > 100 | > 100 µM | > 100 | > 100 µM | > 100 µM | > 100 µM | – | – | – | – | – | – | – | – | – | – | – | – | – |
| COc1cc(OC(=O)c2c(O)cc(O)c(O)c2C)cc(C)c1C(=O)Oc1cc(C)c(C(=O)O)c(O)c1 | > 100 | > 100 | > 100 µM | > 100 | > 100 µM | > 100 µM | > 100 µM | > 100 | – | – | – | – | – | – | – | – | – | – | – | – |
| CCOC(=O)c1cc(/C(=N\O)c2cc(OC)c(OC)c(OC)c2)n2cc(C)cc(C)c12 | – | – | 10 µM | 6.45 | 7.57 µM | 7.68 µM | > 100 µM | 6.74 | 3.01 µM | 2.08 µM | 1.99 µM | 1.93 | > 100 | 2.28 µM | 2.4 µM | 2.56 µM | – | – | – | – |
| O=c1cccccc1NCCCNc1cccccc1=O | > 100 | > 100 | > 100 µM | > 100 | > 100 µM | > 100 µM | > 100 µM | – | – | – | – | – | – | – | – | – | – | – | – | – |
| CN(C)P(=O)(/C(N)=N/Nc1ccc([N+](=O)[O-])cc1)N(C)C | > 100 | > 100 | > 100 µM | > 100 | > 100 µM | > 100 µM | > 100 µM | – | – | – | – | – | – | – | – | – | – | – | – | – |
| Cc1ccc2nc3c(C(=O)NCCN(C)C)cccc3nc2c1 | 12.9 | 14.1 | > 77.2 µM | > 33.7 | > 100 µM | 5.19 µM | > 35.7 µM | 8.7 | – | – | – | – | – | – | – | – | – | – | – | – |
| CCC[CH2][Sn]1([CH2]CCC)[O]C(=O)C(C(C)C)N=Cc2ccccc2[O]1 (centres undefined) | 0.521 | 0.343 | 1.15 µM | 0.939 | – | 0.401 µM | 0.318 µM | > 100 | 0.307 µM | 0.267 µM | 1.08 µM | – | – | – | 0.163 µM | 0.158 µM | 0.195 µM | 0.143 µM | – | – |
| Cn1cc(C(=O)c2ccccc2)ccc1=O | > 100 | > 100 | > 100 µM | > 100 | > 100 µM | > 100 µM | > 100 µM | – | – | – | – | – | – | – | – | – | – | – | – | – |
| CCCCCCCC(CC(=O)NC(CO)C(=O)NC(CO)CC(C)C)OC(=O)CC(CCCCCCC)OC(=O)CC(CCCCCCC)OC1OC(C)C(O)C(OC2OC(C)C(O)C(OC(C)=O)C2O)C1O (centres undefined) | – | 18.5 | 26.4 µM | 22.6 | 23.4 µM | – | 28.8 µM | 26.1 | – | – | – | – | 24.7 | – | – | – | – | – | 26.8 | – |
| O=C(CP(=O)(c1ccccc1)c1ccccc1)c1cccc(C(=O)CP(=O)(c2ccccc2)c2ccccc2)c1 | > 100 | > 100 | > 100 µM | > 100 | > 100 µM | – | > 100 µM | – | – | – | – | – | > 100 | – | – | – | – | – | > 100 | – |
| NC(CC(=O)OCc1ccccc1)C(=O)OCc1ccccc1 (centres undefined) | > 100 | > 100 | > 100 µM | > 100 | – | > 100 µM | > 100 µM | – | – | – | – | – | > 100 | – | – | – | – | – | > 100 | – |
| CC(=O)OC[C@]12CC[C@H]3[C@@H](C[C@H]4O[C@]45[C@@H](O)C=CC(=O)[C@]35C)[C@@H]1CC[C@@H]2[C@H](C)[C@H]1CC(C)=C(C)C(=O)O1 | 1.52 | 2.69 | 0.597 µM and 0.595 µM | 1.11 | 0.642 µM and 0.37 µM | 0.692 µM and 1.19 µM | 0.744 µM and 0.463 µM | 2.77 | 0.241 µM and 0.232 µM | 0.442 µM and 0.32 µM | 0.852 µM and 1.2 µM | – | – | 0.243 µM and 0.119 µM | 0.303 µM and 0.374 µM | 0.274 µM and 0.141 µM | 0.752 µM and 0.484 µM | 0.638 µM and 0.801 µM | – | – |
| O=C(Nc1ccc(Cl)cc1)c1cc(-c2ccc(F)cc2)c2sc(=O)[nH]c2n1 | 3.93 | 5.07 | 2.85 µM | 5.13 | – | 4.43 µM | 16.2 µM | 3.35 | 1.35 µM | 1.88 µM | 0.465 µM | 1.31 | 11.3 | – | 1.68 µM | 3.01 µM | 1.59 µM | 1.11 µM | 5.25 | 0.739 |
| CCOC(=O)NC(=O)c1cn(CCOCCOC(=O)NCCCCCCNC(=O)OCCOCCn2cc(C(=O)NC(=O)OCC)c(=O)[nH]c2=O)c(=O)[nH]c1=O | > 100 | > 100 | > 100 µM | > 100 | > 100 µM | > 100 µM | > 100 µM | > 100 | – | – | – | – | – | – | – | – | – | – | – | – |
| Cc1nc2ccccc2c(=O)n1NC(=O)c1ccccn1 | – | > 100 | > 100 µM | > 100 | > 100 µM | > 100 µM | > 100 µM | > 100 | – | – | – | – | – | – | – | – | – | – | > 100 | – |
| CN(C)c1ccc(N)cc1 | 7.84 | 7.28 | 97.5 µM | 16.3 | – | 14.7 µM | 17.2 µM | 50.7 | 8.38 µM | 4.66 µM | 7.02 µM | 2.83 | 9.12 | – | 3.94 µM | 4.15 µM | 2.55 µM | 2.69 µM | 9.7 | 3.25 |
| O=C(O)CP(=S)(S)c1ccccc1 (centres undefined) | > 100 | > 100 | > 100 µM | > 100 | > 100 µM | > 100 µM | > 100 µM | > 100 | – | – | – | – | – | – | – | – | – | – | – | – |
| COC(=O)c1cccc2cccc(C(=O)Nc3ccc(C)cc3C)c12 | > 100 | > 100 | > 100 µM | > 100 | 35 µM | > 100 µM | > 100 µM | > 100 | – | – | – | – | – | – | – | – | – | – | – | – |
| Cc1ccccc1N(CCC#N)C1=NN(C(=O)CC(=O)Nc2ccccc2)C(c2ccccc2)C1 (centres undefined) | > 100 | > 100 | > 100 µM | > 100 | > 100 µM | – | > 100 µM | – | – | – | – | – | – | – | – | – | – | – | – | – |
| CC1(n2nc(-c3ccccc3)n(-c3ccccc3)c2=O)CSC1 | > 100 | > 100 | > 100 µM | > 100 | > 100 µM | > 100 µM | > 100 µM | > 100 | – | – | – | – | – | – | – | – | – | – | – | – |

Source: PubChem BioAssay (NCI)
